{"source": "patent US12324795B2", "about": "“Autophagy activating agent” (WAKUNAGA PHARMACEUTICAL CO., LTD., priority 2018, dated 2025)", "type_in_all_cases": "cell-based", "key": {"tau protein": {"system": "tau protein", "assay": "Western blotting of tau protein (tau protein-removing effect) in okadaic acid-treated human neuroblasts", "settings": "SH-SY5Y cells", "procedure": "(§1) Human neuroblastoma cell line SH-SY5Y cells were cultured in a Dulbecco's modified Eagle medium supplemented with 10% fetal bovine serum, and antibiotic penicillin-streptomycin solution, and the cultured cells were used as cells for evaluation test.\n(§2) Okadaic acid (at a concentration of 100 nM) and S1PC (at concentrations of 0.03, 0.1, and 0.3 mM) were added to the human neuroblasts for evaluation test prepared in (2) above, and the cells were cultured for 6 hours. After culturing, the cultured cells were washed with a phosphate buffer, and then lysed with RIPA cell lysis buffer (manufactured by Millipore Corporation) diluted 10-fold with purified water containing a protease/phosphatase cocktail inhibitor (manufactured by Thermo Fisher Scientific K.K.). After that, centrifugation was conducted (at 10000 rpm, for 10 minutes, at 4° C.), and the supernatant was used as a cell extract. This cell extract was used to conduct analysis by western blotting in accordance with a usual method. An anti-Atg7 antibody (manufactured by Cell Signaling Technology, Inc.), an anti-4T-tau antibody (manufactured by Wako Pure Chemical Industries, Ltd.), and an anti-β-actin antibody (manufactured by Wako Pure Chemical Industries, Ltd.) were used as antibodies.\n(§3) 10 nM okadaic acid, 0.3 mM S1PC, and 10 mM autophagy inhibitor (3-methyladenine) were added to the human neuroblasts for evaluation test prepared in (2) above, and the cells were cultured for 24 hours. A cell extract was prepared in the same manner as in (a) above, and analyzed by western blotting in accordance with a usual method. An anti-Atg7 antibody (manufactured by Cell Signaling Technology, Inc.), an anti-4T-tau antibody (manufactured by Wako Pure Chemical Industries, Ltd.), and an anti-β-actin antibody (manufactured by Wako Pure Chemical Industries, Ltd.) were used as antibodies.\nas §3, with “50” for “10”, “acid and” for “acid,”, “S1PC or SAC” for “S1PC, and 10 mM autophagy inhibitor (3-methyladenine)”, “6” for “24”, “An” for “An anti-Atg7 antibody (manufactured by Cell Signaling Technology, Inc.), an”, “Ltd.)” for “Ltd.),”"}, "LC3B-II": {"system": "LC3B-II", "assay": "Western blotting of LC3B-II expression in rotenone-treated human neuroblasts", "settings": "SH-SY5Y cells, 10 μM rotenone, 0.3 mM S1PC, 1 mM 3-methyladenine, 3 hours, FIG. 5", "procedure": "as §1\n(§4) 10 μM rotenone, 0.3 mM S1PC, and 1 mM autophagy inhibitor (3-methyladenine) were added to the human neuroblasts for evaluation test prepared in (2) above, and the cells were cultured for 3 hours. A cell extract was prepared in the same manner as in (a) above, and analyzed by western blotting in accordance with a usual method. An anti-α-synuclein antibody, an anti-LC3B antibody (manufactured by Cell Signaling Technology, Inc.), and an anti-β-actin antibody (manufactured by MEDICAL & BIOLOGICAL LABORATORIES CO., LTD.) were used as antibodies."}, "Atg7": {"system": "Atg7", "assay": "Western blotting of Atg7 expression (autophagy activation) in okadaic acid-treated human neuroblasts", "settings": "SH-SY5Y cells", "procedure": "as §1\nas §2, with “An anti-Atg7 antibody (manufactured by Cell Signaling Technology, Inc.), an anti-4T-tau antibody (manufactured by Wako Pure Chemical Industries, Ltd.), and an anti-β-actin antibody (manufactured by Wako Pure Chemical Industries, Ltd.) were used as antibodies.” left out\n10 nM okadaic acid, 0.3 mM S1PC, and 10 mM autophagy inhibitor (3-methyladenine) were added to the human neuroblasts for evaluation test prepared in (2) above, and the cells were cultured for 24 hours. A cell extract was prepared in the same manner as in (a) above, and analyzed by western blotting in accordance with a usual method. […]"}, "caspase-3": {"system": "caspase-3", "assay": "Western blotting of caspase-3 activation (apoptosis inhibitory effect) in okadaic acid-treated human neuroblasts", "settings": "SH-SY5Y cells, 100 nM okadaic acid, 0.3 mM S1PC, 6 hours, FIG. 3", "procedure": "as §1\nas §3, with “100” for “10”, “acid and” for “acid,”, “S1PC” for “S1PC, and 10 mM autophagy inhibitor (3-methyladenine)”, “6” for “24”, “anti-caspase-3” for “anti-Atg7”, “Inc.)” for “Inc.), an anti-4T-tau antibody (manufactured by Wako Pure Chemical Industries, Ltd.),”"}, "α-synuclein protein": {"system": "α-synuclein protein", "assay": "Western blotting of α-synuclein protein (α-synuclein protein-removing effect) in rotenone-treated human neuroblasts", "settings": "SH-SY5Y cells, 3 hours", "procedure": "as §1, §4\nas §4, with “500 nM” for “10 μM”, “rotenone, and” for “rotenone,”, “S1PC or SAC” for “S1PC, and 1 mM autophagy inhibitor (3-methyladenine)”, “(2),” for “(2) above,”, “used. […] Therefore, S1PC is considered to be useful for Parkinson's disease, for example, accompanied by α-synuclein protein accumulation.” for “used as antibodies.”"}, "[1]": {"settings": "10 nM okadaic acid, 0.3 mM S1PC, 10 mM 3-methyladenine, 24 hours, FIG. 2"}, "[2]": {"settings": "okadaic acid 100 nM, S1PC 0.03, 0.1 and 0.3 mM, 6 hours, FIG. 1"}}}
{"smiles": "CC=CSCC(N)C(=O)O", "note": "(centres unmarked) [S1PC, S-1-propenylcysteine]", "values": [{"measurement": "tau protein-removing effect with autophagy inhibitor", "setting": "tau protein; [1]", "value": "suppressed by adding the autophagy inhibitor"}, {"measurement": "tau protein-removing effect compared with SAC", "setting": "tau protein; 50 nM okadaic acid, 0.3 mM S1PC or SAC, 6 hours, FIG. 4", "value": "superior to SAC"}, {"measurement": "tau protein", "setting": "tau protein; 50 nM okadaic acid, 0.3 mM, 6 hours, FIG. 4", "value": "decreased"}, {"measurement": "removal of tau proteins", "setting": "tau protein; [2]", "value": "promoted removal"}, {"measurement": "LC3B-II expression-increasing effect with autophagy inhibitor", "setting": "LC3B-II", "value": "suppressed by adding the autophagy inhibitor"}, {"measurement": "Atg7 expression-increasing effect with autophagy inhibitor", "setting": "Atg7; [1]", "value": "suppressed by adding the autophagy inhibitor"}, {"measurement": "Atg7 expression", "setting": "Atg7; [2]", "value": "increased"}, {"measurement": "activation of caspase-3", "setting": "caspase-3", "value": "suppressed"}, {"measurement": "α-synuclein protein-removing effect compared with SAC", "setting": "α-synuclein protein; 500 nM rotenone, 0.3 mM S1PC or SAC, FIG. 6", "value": "superior to SAC"}, {"measurement": "α-synuclein protein", "setting": "α-synuclein protein; 500 nM rotenone, 0.3 mM, FIG. 6", "value": "decreased"}, {"measurement": "α-synuclein protein-removing effect with autophagy inhibitor", "setting": "α-synuclein protein; 10 μM rotenone, 0.3 mM S1PC, 1 mM 3-methyladenine, FIG. 5", "value": "suppressed by adding the autophagy inhibitor"}]}
